Experimental data from the supplement of paper PMC11061612.

Legend:
[1] = test system: SK-LU-1 (Lung Adenocarcinoma); assay: Bliss excess, mean over the matrix (fraction); higher = more synergy
In short: (§1)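 Cell lines grown in DMEM/F12 or RPMI with 10% FBS were plated in 1536-well plates and held 24 hours at 37°C, 5% CO2 before 72 hours of exposure to two-drug dose matrices, with DMSO typically at 0.2%. CellTiter-Glo 2.0 luminescence gave viability, which was converted to inhibition. Vehicle wells were set to 0 and blank wells to 1. Combination Emax is the second-highest inhibition in the matrix, and Bliss excess is the observed combination effect minus the expected EA + EB − EA·EB, where EA and EB are the single-agent effects.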

[2] = test system: SKN (Other Solid Carcinomas); assay: as above
In short: as §1

[3] = test system: SW982 (Other Solid Carcinomas); assay: combination Emax (second highest fraction inhibited in the dose matrix, 72 h); higher = more inhibition; extreme values may be limits of the assay
In short: as §1

[4] = test system: NCI-H1355 (Lung Adenocarcinoma); assay: as above
In short: as §1

[5] = test system: NCI-H1838 (Lung Adenocarcinoma); assay: as above
In short: as §1

[6] = test system: LC-1-sq (Squamous Cell Lung Carcinoma); assay: as above
In short: as §1

[7] = test system: COLO-668 (Small Cell Lung Carcinoma); assay: as above
In short: as §1

[8] = test system: CADO-ES1 (Ewing's Sarcoma); assay: as above
In short: as §1

[9] = test system: NCI-H2122 (Lung Adenocarcinoma); assay: as above
In short: as §1

[10] = test system: HCC1937 (Breast Carcinoma); assay: as above
In short: as §1

[11] = test system: MOG-G-UVW (Low Grade Glioma); assay: as above
In short: as §1

[12] = test system: EFO-21 (Ovarian Carcinoma); assay: as above
In short: as §1

[13] = test system: SW872 (Other Solid Carcinomas); assay: as above
In short: as §1

[14] = test system: G-401 (Other Solid Carcinomas); assay: as above
In short: as §1

[15] = test system: KMRC-1 (Kidney Carcinoma); assay: as above
In short: as §1

[16] = test system: SNU-387 (Hepatocellular Carcinoma); assay: as above
In short: as §1

[17] = test system: HCC2998 (Colorectal Carcinoma); assay: as above
In short: as §1

[18] = test system: SKN (Other Solid Carcinomas); assay: as above
In short: as §1

[19] = test system: NCI-H650 (Lung Adenocarcinoma); assay: as above
In short: as §1

[20] = test system: DU-145 (Prostate Carcinoma); assay: as above
In short: as §1
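Throughout, for Bliss excess, mean over the matrix: after 72 h of two-drug dosing.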

## Cc1c2c(nn1C)CSCc1cc(n(C)n1)CSc1cc(c3ccccc3c1)OCCCc1c(C(=O)O)n(C)c3c-2c(Cl)ccc13 [AZD5991] + CN(C)CCCOc1ccc(-c2ccc3ncc4c(c3c2)n(C2CCOCC2)c(=O)n4C)cn1 [AZD0156] (first compound max 1 µM, 7x7, partner max 1 µM)
[1]
  Bliss excess: -0.0889
[2]
  Bliss excess: -0.0055
[3]
  combination Emax: 0.258
[4]
  combination Emax: 0.263
[5]
  combination Emax: 0.464
[6]
  combination Emax: 0.258
[7]
  combination Emax: 0.222
[8]
  combination Emax: 0.946
[9]
  combination Emax: 0.656
[10]
  combination Emax: 0.333
[11]
  combination Emax: 0.247
[12]
  combination Emax: 0.247
[13]
  combination Emax: 0.226
[14]
  combination Emax: 0.733
[15]
  combination Emax: 0.197
[16]
  combination Emax: 0.376
[17]
  combination Emax: 0.952
[18]
  combination Emax: 0.278
[19]
  combination Emax: 0.272
[20]
  combination Emax: 0.192

## Cc1c2c(nn1C)CSCc1cc(n(C)n1)CSc1cc(c3ccccc3c1)OCCCc1c(C(=O)O)n(C)c3c-2c(Cl)ccc13 [AZD5991] + Cc1cc2ncnn2cc1Nc1ncc2c(n1)n(C1CCOCC1)c(=O)n2C [AZD7648] (first compound max 1 µM, 7x7, partner max 10 µM)
[1]
  Bliss excess: -0.062
[2]
  Bliss excess: -0.0386
[3]
  combination Emax: 0.371
[4]
  combination Emax: 0.393
[5]
  combination Emax: 0.259
[6]
  combination Emax: 0.269
[7]
  combination Emax: 0.187
[8]
  combination Emax: 0.893
[9]
  combination Emax: 0.597
[10]
  combination Emax: 0.362
[11]
  combination Emax: 0.271
[12]
  combination Emax: 0.32
[13]
  combination Emax: 0.258
[14]
  combination Emax: 0.616
[15]
  combination Emax: 0.203
[16]
  combination Emax: 0.393
[17]
  combination Emax: 0.899
[18]
  combination Emax: 0.305
[19]
  combination Emax: 0.203
[20]
  combination Emax: 0.23

## CN(C)CCCOc1ccc(-c2ccc3ncc4c(c3c2)n(C2CCOCC2)c(=O)n4C)cn1 [AZD0156] + C[C@@H]1COCCN1C2=NC(=NC(=C2)C3(CC3)[S@](=N)(=O)C)C4=C5C=CNC5=NC=C4 [AZD6738] (first compound max 1 µM, 7x7, partner max 10 µM)
[1]
  Bliss excess: 0.0073
[2]
  Bliss excess: -0.0069
[3]
  combination Emax: 0.723
[4]
  combination Emax: 0.69
[5]
  combination Emax: 0.745
[6]
  combination Emax: 0.877
[7]
  combination Emax: 0.612
[8]
  combination Emax: 0.903
[9]
  combination Emax: 0.945
[10]
  combination Emax: 0.543
[11]
  combination Emax: 0.816
[12]
  combination Emax: 0.549
[13]
  combination Emax: 0.552
[14]
  combination Emax: 0.493
[15]
  combination Emax: 0.575
[16]
  combination Emax: 0.553
[17]
  combination Emax: 0.831
[18]
  combination Emax: 0.344
[19]
  combination Emax: 0.226
[20]
  combination Emax: 0.544

## Cc1c2c(nn1C)CSCc1cc(n(C)n1)CSc1cc(c3ccccc3c1)OCCCc1c(C(=O)O)n(C)c3c-2c(Cl)ccc13 [AZD5991] + C[C@@H](Nc1cc(F)cc(F)c1)c1cc(C(=O)N(C)C)cc2c(=O)cc(N3CCOCC3)oc12 [AZD8186] (first compound max 1 µM, 7x7, partner max 3 µM)
[1]
  Bliss excess: 0.0004
[2]
  Bliss excess: -0.0142
[3]
  combination Emax: 0.443
[4]
  combination Emax: 0.227
[5]
  combination Emax: 0.472
[6]
  combination Emax: 0.24
[7]
  combination Emax: 0.205
[8]
  combination Emax: 0.918
[9]
  combination Emax: 0.697
[10]
  combination Emax: 0.511
[11]
  combination Emax: 0.512
[12]
  combination Emax: 0.337
[13]
  combination Emax: 0.321
[14]
  combination Emax: 0.612
[15]
  combination Emax: 0.639
[16]
  combination Emax: 0.41
[17]
  combination Emax: 0.918
[18]
  combination Emax: 0.532
[19]
  combination Emax: 0.22
[20]
  combination Emax: 0.179

## Cc1c2c(nn1C)CSCc1cc(n(C)n1)CSc1cc(c3ccccc3c1)OCCCc1c(C(=O)O)n(C)c3c-2c(Cl)ccc13 [AZD5991] + CC1(C)CCC(CN2CCN(c3ccc(C(=O)NS(=O)(=O)c4ccc(NCC5CCOCC5)c([N+](=O)[O-])c4)c(Oc4cnc5[nH]ccc5c4)c3)CC2)=C(c2ccc(Cl)cc2)C1 [Venetoclax] (first compound max 1 µM, 7x7, partner max 1 µM)
[1]
  Bliss excess: -0.0368
[2]
  Bliss excess: -0.0031
[3]
  combination Emax: 0.192
[4]
  combination Emax: 0.188
[5]
  combination Emax: 0.306
[6]
  combination Emax: 0.322
[7]
  combination Emax: 0.686
[8]
  combination Emax: 0.911
[9]
  combination Emax: 0.823
[10]
  combination Emax: 0.316
[11]
  combination Emax: 0.257
[12]
  combination Emax: 0.207
[13]
  combination Emax: 0.312
[14]
  combination Emax: 0.565
[15]
  combination Emax: 0.289
[16]
  combination Emax: 0.454
[17]
  combination Emax: 0.893
[18]
  combination Emax: 0.177
[19]
  combination Emax: 0.329
[20]
  combination Emax: 0.149

## NC1(C(=O)N[C@@H](CCO)c2ccc(Cl)cc2)CCN(c2ncnc3[nH]ccc23)CC1 [Capivasertib] + CC(C)n1c(=O)n(C)c2cnc3cc(F)c(-c4ccc(OCCCN5CCCCC5)nc4)cc3c21 [AZD1390] (first compound max 10 µM, 7x7, partner max 0.3 µM)
[1]
  Bliss excess: -0.0747
[2]
  Bliss excess: -0.055
[3]
  combination Emax: 0.435
[4]
  combination Emax: 0.273
[5]
  combination Emax: 0.206
[6]
  combination Emax: 0.253
[7]
  combination Emax: 0.401
[8]
  combination Emax: 0.0981
[9]
  combination Emax: 0.57
[10]
  combination Emax: 0.426
[11]
  combination Emax: 0.576
[12]
  combination Emax: 0.217
[13]
  combination Emax: 0.342
[14]
  combination Emax: 0.545
[15]
  combination Emax: 0.435
[16]
  combination Emax: 0.256
[17]
  combination Emax: 0.398
[18]
  combination Emax: 0.516
[19]
  combination Emax: 0.268
[20]
  combination Emax: 0.249

## Cc1c2c(nn1C)CSCc1cc(n(C)n1)CSc1cc(c3ccccc3c1)OCCCc1c(C(=O)O)n(C)c3c-2c(Cl)ccc13 [AZD5991] + C=CCn1c(=O)c2cnc(Nc3ccc(N4CCN(C)CC4)cc3)nc2n1-c1cccc(C(C)(C)O)n1 [AZD1775] (first compound max 1 µM, partner max 1 µM)
[1]
  Bliss excess: -0.0082
[2]
  Bliss excess: -0.0269
[3]
  combination Emax: 0.798
[4]
  combination Emax: 0.57
[5]
  combination Emax: 0.835
[6]
  combination Emax: 0.851
[7]
  combination Emax: 0.464
[8]
  combination Emax: 0.925
[9]
  combination Emax: 0.979
[10]
  combination Emax: 0.617
[11]
  combination Emax: 0.761
[12]
  combination Emax: 0.552
[13]
  combination Emax: 0.374
[14]
  combination Emax: 0.901
[15]
  combination Emax: 0.275
[16]
  combination Emax: 0.581
[17]
  combination Emax: 0.962
[18]
  combination Emax: 0.436
[19]
  combination Emax: 0.748
[20]
  combination Emax: 0.373
